Source: the OPERA property sets (Mansouri et al. 2018)
Peptide text beside a SMILES is read from it.

| SMILES | logP |
| --- | --- |
| Nc1nc(N)nc(-c2ccccc2[N+](=O)[O-])n1 | 0.49 |
| O=C1NC(=O)C(c2cccnc2)N1 (configuration not stated) | -0.95 |
| OCc1ccc2ccccc2c1 | 2.21 |
| CNC(=O)Oc1cc(C)c(C)c(C)c1 | 2.66 |
| CCCCSCS(=O)CC(CO)NC(=O)C=Cc1c(C)[nH]c(=O)[nH]c1=O (configuration not stated) | 0.14 |
| CCOC(=O)c1ccc(N=NN(C)CCO)cc1 | 2.66 |
| CCCOCc1ccccc1NC(=O)OCCN1CCCCC1 | 3.34 |
| CN(C)C(=O)OCc1ccc(F)cc1 | 2.3 |
| c1ccc(Sc2ccccc2)cc1 | 4.45 |
| O=C(O)c1ccc2cccccc1-2 | 2.88 |
| Cc1cccc2ncc(-c3ccccc3)c(=O)n12 | 2.59 |
| CNC(=O)COc1ccccc1 | 1.02 |
| [N-]=[N+]=CC(=O)NCC(N)=O | -1.26 |
| CC(=O)NO | -1.59 |
| C1=CCOC1 | 0.46 |
| CON(C)C(=O)Nc1ccc(Cl)cc1 | 2.3 |
| CC(C)NC(=O)c1cccnc1 | 0.59 |
| CC(=O)c1ccc(Cl)cc1 | 2.32 |
| CCCC(=O)OC1(C(=O)CCl)C(C)CC2C3CCC4=CC(=O)C=CC4(C)C3(F)C(O)CC21C (configuration not stated) | 3.63 |
| CCN(CC)CCNC(=O)c1ccccc1 | 1.99 |
| CC(C)(C)C(=O)OCC1CCC(n2cnc3c(=O)[nH]cnc32)O1 (configuration not stated) | 0.6 |
| O=C(NC(CO)C(O)c1ccc([N+](=O)[O-])cc1)C(Cl)(Cl)Cl (configuration not stated) | 1.97 |
| O=C(Nc1ccccc1)c1cccnc1 | 1.73 |

| SMILES | logP |
| --- | --- |
| C=CC#N | 0.25 |
| CCc1cc(-c2ccccc2)nnc1NCCN1CCOCC1 | 2.53 |
| c1ccc(-n2cnnn2)cc1 | 1.09 |
| CS(=O)(=O)Nc1ccc(Cl)cc1 | 1.85 |
| O=Cc1ccc(OCC(=O)O)cc1 | 0.79 |
| O=c1ccoc2cc(O)ccc12 | 1.44 |
| Brc1cc(Br)cc(Br)c1 | 4.51 |
| CCCCN(CCCC)N=O | 2.63 |
| ClCCOCCCl | 1.29 |
| CNC(=O)Oc1cccc(Br)c1 | 2.25 |
| CC(=O)OC1(C(=O)CO)CCC2C3CCC4=CC(=O)C=CC4(C)C3C(=O)CC21C (configuration not stated) | 2.43 |
| Nc1ccc(Cl)c(Cl)c1 | 2.69 |
| CC(=O)Oc1ccccc1 | 1.49 |
| Cc1[nH]cnc1CSCCNc1[nH]ccc(=O)c1[N+](=O)[O-] | -0.2 |
| c1ccc2c(c1)sc1ccccc12 | 4.38 |
| CN(C)C(N(C)C)=S(I)c1cccc(Cl)c1 (configuration not stated) | -0.17 |
| O=[N+]([O-])c1nccn1CC(O)CN1CCCCC1 (configuration not stated) | 1 |
| O=[N+]([O-])c1cccc(CO)c1 | 1.21 |
| CC(=Cc1ccccc1)[N+](=O)[O-] | 2.52 |
| Cc1ccccc1N | 1.32 |
| OC(c1ccccc1)C(O)c1ccccc1 (configuration not stated) | 1.91 |
| COC | 0.1 |
| CC(=O)c1ccco1 | 0.52 |

| SMILES | logP |
| --- | --- |
| NC(=O)CCCc1cccnc1 | -0.08 |
| Oc1ccccc1F | 1.71 |
| Cc1ccc2[nH]c(=O)[nH]c(=O)c2c1 | 0.55 |
| C=C(C)C | 2.34 |
| Nc1ccccc1S | 1.43 |
| COc1ccc(-c2nc3cnccc3n2C)c(OC)c1 | 2.66 |
| CN(C)CC(CN1c2ccccc2Sc2ccccc21)N(C)C (configuration not stated) | 4.76 |
| CC(=O)N[C@H](C(=O)N[C@H](C(N)=O)C(C)C)[C@@H](C)O (Ac-Thr-Val-NH2) | -1.25 |
| NC(=O)Nc1cccc(OCC(=O)O)c1 | 0.26 |
| CC(=O)OCC(=O)[C@@]1(O)CC[C@H]2[C@@H]3CCC4=CC(=O)C=C[C@]4(C)[C@H]3[C@@H](O)C[C@@]21C | 2.4 |
| N#Cc1c[nH]c2ccccc12 | 2.32 |
| N#CCc1ccc(Cl)cc1 | 2.47 |
| O=C(O)COc1ccc([N+](=O)[O-])cc1 | 1.48 |
| CC[n+]1cccc2ccccc21.[Br-] | -2.76 |
| CC(=S)Nc1ccccc1 | 1.71 |
| CCCC(C)O (configuration not stated) | 1.19 |
| CC(C)N | 0.26 |
| C#CCCCC | 2.73 |
| FC(F)(Cl)C(F)(Cl)Cl | 3.16 |
| Cc1nc(N)nc(N)c1C12CC3CC(CC(C3)C1)C2 | 2.64 |
| COC(=O)CCCCCC(=O)OC | 1.38 |
| CSc1ccccc1N | 1.2 |
| CCCCNCCC | 2.12 |

| SMILES | logP |
| --- | --- |
| Clc1cc(Cl)nc(-c2ccccc2)n1 | 4.17 |
| Nc1ccncc1 | 0.32 |
| O=CN1CCCC1 | -0.32 |
| ICCI | 2.71 |
| O=C1CN=C(c2ccccc2Cl)c2cc([N+](=O)[O-])ccc2N1 | 2.41 |
| O=C(O)CCCN1C(=O)C=CC1=O | 0.4 |
| CCCCCCCCn1cc(C)c(=O)[nH]c1=O | 3.08 |
| CCOc1cc(N)ccc1C(=O)O | 0.99 |
| NC(=O)c1ccco1 | -0.11 |
| CS(=O)(=O)CC#N | -1.42 |
| O=C(C=Cc1ccco1)c1ccco1 | 2.34 |
| CCC(C)C(NC(=O)C(Cc1ccccc1)NC(C)=O)C(=O)NCC(N)=O (stereo not drawn) (Ac-Phe-Ile-Gly-NH2; configuration not given here) | 0.34 |
| CC(=O)OC(OC(C)=O)c1ccc([N+](=O)[O-])o1 | 1.06 |
| CC(=O)c1cccc(NC(=O)N(C)C)c1 | 0.95 |
| CCC(C)c1ccccc1OCC(=O)O (configuration not stated) | 3.32 |
| O=C1NC(=O)c2ccccc21 | 1.15 |
| O=C(Cn1cnc([N+](=O)[O-])n1)N1CCOCC1 | -0.96 |
| CCN(C)C | 0.7 |
| Cc1cscn1 | 0.97 |
| CCN(CC)C(=O)N(CC)N=O | 1.54 |
| CCCCCCOC(N)=O | 1.85 |
| CC(=O)OC1CC(OC2C(O)CC(OC3C(C)OC(OC4CCC5(C)C(CCC6C5CC(O)C5(C)C(C7=CC(=O)OC7)CCC65O)C4)CC3OC(C)=O)OC2C)OC(C)C1O (configuration not stated) | 2.45 |
| CCCCN(N=O)C(N)=O | 1.04 |

| SMILES | logP |
| --- | --- |
| CON(C)C(=O)Nc1ccc(C=C(C#N)C#N)cc1 | 2.19 |
| CC1(C)N=C(N)N=C(N)N1c1ccc(Br)cc1 | 1.09 |
| CN1CC[C@]23c4c5ccc(O)c4O[C@H]2C(=O)CC[C@@]3(O)[C@H]1C5 | 0.83 |
| CCC1C2CC3C4N(C)c5ccccc5C45CC(C2C5O)N3C1O (configuration not stated) | 1.81 |
| CN(C)CCOC(=O)c1ccc(C#N)cc1 | 1.43 |
| CC(=O)Oc1ccccc1Cl | 2.18 |
| O=NN(CCCl)C(=O)NC1CCCCCCCCCCC1 | 5.64 |
| COC1C(O)CC(OC2C(O)CC(OC3C(O)CC(OC4CCC5(C)C(CCC6C5CC(OC(C)=O)C5(C)C(C7=CC(=O)OC7)CCC65O)C4)OC3C)OC2C)OC1C (configuration not stated) | 2.87 |
| COCCOCC1COC(c2ccc(Cl)cc2Cl)(n2cncn2)O1 (configuration not stated) | 2.03 |
| Cc1ncc([N+](=O)[O-])n1CC(C)O (configuration not stated) | 0.22 |
| CNCC(CC(C)C)c1ccccc1 (configuration not stated) | 3.76 |
| S=C1CCCCN1 | 0.13 |
| c1cncc(CN2CCOCC2)c1 | 0.04 |
| CC1(C)N=C(N)N=C(N)N1c1ccc(F)cc1 | 0.37 |
| O=C(O)[C@@H]1CCCN1 | -2.54 |
| c1nnnn1C12CC3CC(CC(C3)C1)C2 | 2.95 |
| CNC(=O)Oc1ccc(I)cc1 | 2.46 |
| Brc1ccccn1 | 1.42 |
| CCCCCNc1nc(NCC)nc(SC(F)F)n1 | 4.71 |
| Nc1nc(N)nc(-c2ccc(F)cc2)n1 | 1.61 |
| Cn1cccn1 | 0.23 |
| CNC(=O)Oc1ccc(C(=O)OC)cc1 | 1.5 |
| O=C(O)c1cc(Cl)cc(Cl)c1 | 3 |

| SMILES | logP |
| --- | --- |
| C=C(C)C(=O)OC | 1.38 |
| NC(=O)Cc1ccncc1 | -0.65 |
| O=C1CCC(=O)N1c1ccc([N+](=O)[O-])cc1 | 0.46 |
| CC(C)(N)Cc1ccc(Cl)cc1 | 2.6 |
| CCCCCCCNC(=O)c1ccccc1 | 3.94 |
| CON(C)C(=O)Nc1ccc([N+](=O)[O-])cc1 | 1.74 |
| OCc1ccc(Cl)cc1 | 1.96 |
| O=NN(CCCl)C(=O)Nc1ccccc1 | 2.49 |
| CC(=O)c1ccc(F)cc1 | 1.72 |
| O=C(CNC(=O)c1ccccc1)Oc1cccc([N+](=O)[O-])c1 | 2.46 |
| O=C1C=CCCC1 | 0.61 |
| Oc1cccc(O)c1 | 0.8 |
| CC1OC(OC2C(O)CC(OC3C(O)CC(OC4CCC5(C)C(CCC6C5CC(O)C5(C)C(C7=CC(=O)OC7)CCC65O)C4)OC3C)OC2C)CC(OC(=O)C2OC(O)CC(O)C2O)C1O (configuration not stated) | -1.77 |
| COC(=O)c1ccc(OC)cc1 | 2.27 |
| CCCCNC(=O)c1ccc(S(N)(=O)=O)cc1 | 1.05 |
| NS(=O)(=O)c1ccc(SCCO)s1 | 0.38 |
| CC1NC(=O)C(CC(=O)NC(Cc2c[nH]c3ccccc23)C(=O)NC(Cc2ccccc2)C(=O)N(C)Cc2ccccc2)NC1=O (configuration not stated) | 3.18 |
| CCC=O | 0.59 |
| COc1ccc(OC(=O)c2ccc(N)cc2O)cc1 | 3.07 |
| COC1OC(=O)c2ccccc21 (configuration not stated) | 1 |
| NNC(=O)c1ccc([N+](=O)[O-])cc1 | 0.35 |
| CNC(=O)Oc1ccccc1OC | 0.81 |
| O=[N+]([O-])c1ccccc1F | 1.69 |

| SMILES | logP |
| --- | --- |
| NC(=O)Nc1cccc2cccnc12 | 1.62 |
| N#Cc1cccs1 | 1.27 |
| O=[N+]([O-])c1ncn(CC(O)CCl)n1 (configuration not stated) | 0.05 |
| CCCNC(=O)c1[nH]nc(C)c1[N+](=O)[O-] | 0.65 |
| Nc1ccc(C(=O)Oc2ccccc2Br)c(O)c1 | 3.74 |
| O=[N+]([O-])c1cccc(C(F)(F)F)c1 | 2.62 |
| CC(C)=NOCCOC(=O)[C@@H](C)Oc1ccc(Oc2cnc3cc(Cl)ccc3n2)cc1 | 4.6 |
| CC(=O)O[C@H]1C[C@H](O[C@H]2[C@@H](O)C[C@H](O[C@H]3[C@@H](O)C[C@H](O[C@H]4CC[C@@]5(C)[C@H](CC[C@@H]6[C@@H]5C[C@@H](O)[C@]5(C)[C@@H](C7=CC(=O)OC7)CC[C@]65O)C4)O[C@@H]3C)O[C@@H]2C)O[C@H](C)[C@H]1O[C@@H]1O[C@H](CO)[C@@H](O)[C@H](O)[C@H]1O | 0.07 |
| O=C(NC(CO)C(O)c1ccc([N+](=O)[O-])cc1)C(Br)Br (configuration not stated) | 1.36 |
| O=S(c1ccccc1)c1ccccc1 | 2.06 |
| CCCCCCCOc1ccc(NC(=O)OCCN2CCCCC2)cc1 | 5.87 |
| Clc1ccc(-c2ccc(Cl)c(Cl)c2Cl)cc1 | 5.84 |
| NCc1ccccn1 | -0.21 |
| O=C([O-])c1ccccc1O.[Na+] | -1.43 |
| OC1CCCCC1 | 1.23 |
| CCC1(c2ccccc2)C(=O)NC(=O)N(C(C)C)C1=O (configuration not stated) | 2.58 |
| CCCCOC(=O)N(C)SN(C)C(=O)Oc1cccc2c1OC(C)(C)C2 | 4.7 |
| c1cnc2c(c1)ccc1cccnc12 | 1.78 |
| CCCCOc1ccc(C(N)=O)cc1 | 2.48 |
